Measurements from article PMC7486443, “Generation of Phenothiazine with Potent Anti-TLK1 Activity for Prostate Cancer Therapy” (iScience, 2020).

Key:
Assay in all cases: biochemical
Parameters in all cases: DiscoverX KINOMEscan scanMAX competition binding panel, single concentration, percent of control; remaining binding: dose or concentration left out as unconfirmed
Conditions in all cases: KINOMEscan binding, percent of control; read-out: Table S4_SCANMAX REPORT - related to Fig. 1 / Percent Control
EPHB3 = EPHB3 (Homo sapiens, UniProt P54753)
Description: (§1) Certain PTH are potent inhibitors of TLK1 ([Ronald et al., 2013]), and by inference TLK2, as these proteins must homo- and hetero-dimerize for full activation ([Mortuza et al., 2018]), in addition to being highly similar in sequence and structure, and thus similarly targetable. […] Two noteworthy observations are that PTHs are structurally different from many known ATP competitive inhibitors, and that J54 was carefully designed based on considerations reported previously for the THD—the Kinomescan has confirmed that J54 is specific to TLKs. We should point out that although PTH were the first reported inhibitors of TLKs ([Ronald et al., 2013]), other inhibitors particularly of TLK2 have since been reported ([Kim et al., 2016]), some based on structure docking ([Mortuza et al., 2018]), although neither their potency and effects in vivo nor their potential off-target effects have not been reported as they were selected from libraries of kinase inhibitors. Supplementary file mmc2.xlsx: Table S4. SCANMAX Table, Related to Figure 1 Kinomescan of J54 inhibitory activity on human kinases.

EGFR(G719C) = EGFR(G719C) (Homo sapiens, UniProt P00533, G719C)
Chain of EGFR(G719C) (P00533 whole entry G719C): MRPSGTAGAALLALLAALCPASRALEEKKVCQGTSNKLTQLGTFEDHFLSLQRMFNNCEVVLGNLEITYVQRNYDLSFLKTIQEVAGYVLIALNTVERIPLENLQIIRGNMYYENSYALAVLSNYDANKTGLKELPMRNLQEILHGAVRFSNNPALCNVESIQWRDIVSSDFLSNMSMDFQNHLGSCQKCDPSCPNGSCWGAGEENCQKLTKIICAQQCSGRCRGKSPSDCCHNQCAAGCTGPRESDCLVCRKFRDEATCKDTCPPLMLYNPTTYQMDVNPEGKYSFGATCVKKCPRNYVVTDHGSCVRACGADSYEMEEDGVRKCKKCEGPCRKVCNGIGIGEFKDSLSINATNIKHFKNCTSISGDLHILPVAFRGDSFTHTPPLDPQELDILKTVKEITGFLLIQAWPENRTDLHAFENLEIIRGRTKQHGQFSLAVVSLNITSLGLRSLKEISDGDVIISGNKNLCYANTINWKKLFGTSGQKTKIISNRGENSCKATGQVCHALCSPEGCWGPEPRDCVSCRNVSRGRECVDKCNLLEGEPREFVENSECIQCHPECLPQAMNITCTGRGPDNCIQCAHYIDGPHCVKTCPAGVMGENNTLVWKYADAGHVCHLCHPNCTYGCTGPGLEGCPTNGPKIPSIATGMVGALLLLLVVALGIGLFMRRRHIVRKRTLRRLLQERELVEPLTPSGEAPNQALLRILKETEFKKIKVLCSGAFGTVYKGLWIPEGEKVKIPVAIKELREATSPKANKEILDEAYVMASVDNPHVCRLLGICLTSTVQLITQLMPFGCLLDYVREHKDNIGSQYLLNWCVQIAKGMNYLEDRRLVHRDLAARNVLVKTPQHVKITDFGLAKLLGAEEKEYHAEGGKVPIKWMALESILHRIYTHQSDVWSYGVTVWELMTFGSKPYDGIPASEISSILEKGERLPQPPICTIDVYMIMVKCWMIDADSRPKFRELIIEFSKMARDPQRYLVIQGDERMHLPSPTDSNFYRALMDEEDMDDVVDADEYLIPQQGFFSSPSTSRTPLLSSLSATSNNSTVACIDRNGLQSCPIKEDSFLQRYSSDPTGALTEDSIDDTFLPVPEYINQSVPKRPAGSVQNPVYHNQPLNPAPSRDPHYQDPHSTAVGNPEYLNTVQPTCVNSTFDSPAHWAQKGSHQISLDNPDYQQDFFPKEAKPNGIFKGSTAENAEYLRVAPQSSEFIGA
Description: as §1

MET = MET (Homo sapiens, UniProt P08581)
Chain of MET (P08581 whole entry): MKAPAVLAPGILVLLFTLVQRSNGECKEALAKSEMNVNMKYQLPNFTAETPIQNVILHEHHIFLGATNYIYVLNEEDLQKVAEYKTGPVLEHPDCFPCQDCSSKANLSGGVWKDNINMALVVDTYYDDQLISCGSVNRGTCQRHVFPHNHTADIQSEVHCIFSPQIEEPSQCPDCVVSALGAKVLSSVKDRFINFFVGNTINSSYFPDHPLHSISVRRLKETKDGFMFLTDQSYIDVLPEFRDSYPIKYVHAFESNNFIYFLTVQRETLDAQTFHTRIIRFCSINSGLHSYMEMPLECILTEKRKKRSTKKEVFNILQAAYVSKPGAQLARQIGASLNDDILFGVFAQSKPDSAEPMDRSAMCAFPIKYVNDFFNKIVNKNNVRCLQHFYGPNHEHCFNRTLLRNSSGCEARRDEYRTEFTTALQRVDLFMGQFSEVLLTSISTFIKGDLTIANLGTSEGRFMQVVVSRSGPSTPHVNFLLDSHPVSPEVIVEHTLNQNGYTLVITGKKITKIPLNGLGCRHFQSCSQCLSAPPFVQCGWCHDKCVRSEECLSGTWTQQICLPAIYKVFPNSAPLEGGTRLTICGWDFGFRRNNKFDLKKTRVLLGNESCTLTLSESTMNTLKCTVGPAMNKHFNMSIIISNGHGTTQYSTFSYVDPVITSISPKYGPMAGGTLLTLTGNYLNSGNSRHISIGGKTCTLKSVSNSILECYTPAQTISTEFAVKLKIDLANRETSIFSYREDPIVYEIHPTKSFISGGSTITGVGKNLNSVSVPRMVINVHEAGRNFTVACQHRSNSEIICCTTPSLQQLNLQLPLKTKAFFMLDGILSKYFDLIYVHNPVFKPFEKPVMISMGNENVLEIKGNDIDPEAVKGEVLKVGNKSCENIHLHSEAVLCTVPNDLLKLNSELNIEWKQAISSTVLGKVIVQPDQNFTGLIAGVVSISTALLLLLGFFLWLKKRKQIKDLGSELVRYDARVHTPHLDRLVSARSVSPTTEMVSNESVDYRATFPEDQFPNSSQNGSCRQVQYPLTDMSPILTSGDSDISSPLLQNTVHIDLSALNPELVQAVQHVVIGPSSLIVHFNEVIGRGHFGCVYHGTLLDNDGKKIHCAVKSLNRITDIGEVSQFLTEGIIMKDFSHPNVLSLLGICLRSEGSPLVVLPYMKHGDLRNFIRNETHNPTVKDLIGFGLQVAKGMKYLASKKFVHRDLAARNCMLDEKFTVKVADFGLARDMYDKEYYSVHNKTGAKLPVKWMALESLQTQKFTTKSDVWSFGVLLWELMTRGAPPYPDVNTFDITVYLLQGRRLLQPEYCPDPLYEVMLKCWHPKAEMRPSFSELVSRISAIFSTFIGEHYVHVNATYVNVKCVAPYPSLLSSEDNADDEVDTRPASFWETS
Description: as §1

PRKCH = PRKCH (Homo sapiens, UniProt P24723)
Description: as §1

MEK3 = biological target: T1, MEK3 (Homo sapiens, UniProt P46734)
T1 construct: gene MAP2K3
T1 sequence (P46734 whole entry): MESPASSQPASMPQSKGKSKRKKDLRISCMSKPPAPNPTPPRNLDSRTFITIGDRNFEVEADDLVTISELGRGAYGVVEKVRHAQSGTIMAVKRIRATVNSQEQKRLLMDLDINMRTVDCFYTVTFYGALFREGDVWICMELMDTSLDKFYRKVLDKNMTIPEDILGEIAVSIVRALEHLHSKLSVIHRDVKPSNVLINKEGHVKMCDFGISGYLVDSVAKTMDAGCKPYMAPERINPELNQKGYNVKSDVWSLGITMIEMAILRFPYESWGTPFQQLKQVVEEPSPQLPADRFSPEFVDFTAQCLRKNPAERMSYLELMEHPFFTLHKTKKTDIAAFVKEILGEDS
Description: as §1

SIK = biological target: T2, SIK (Homo sapiens, UniProt P57059)
T2 construct: gene SIK1
Description: as §1

PIK3CA(Q546K) = PIK3CA(Q546K) (Homo sapiens, UniProt P42336, Q546K)
Description: as §1

MYLK4 = MYLK4 (Homo sapiens, UniProt Q86YV6)
Chain of MYLK4 (Q86YV6 whole entry): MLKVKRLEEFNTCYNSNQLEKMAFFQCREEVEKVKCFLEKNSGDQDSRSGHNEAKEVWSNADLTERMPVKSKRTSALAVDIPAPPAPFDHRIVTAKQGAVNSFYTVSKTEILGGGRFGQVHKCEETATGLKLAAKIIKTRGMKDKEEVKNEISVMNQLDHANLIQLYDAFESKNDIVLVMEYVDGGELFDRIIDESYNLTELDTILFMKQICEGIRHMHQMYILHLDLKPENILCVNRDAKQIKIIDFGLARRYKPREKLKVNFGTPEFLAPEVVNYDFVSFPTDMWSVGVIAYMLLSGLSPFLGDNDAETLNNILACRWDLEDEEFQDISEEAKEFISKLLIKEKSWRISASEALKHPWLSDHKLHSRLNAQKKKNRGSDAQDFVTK
Description: as §1

ULK1 = ULK1 (Homo sapiens, UniProt O75385)
Chain of ULK1 (O75385 whole entry): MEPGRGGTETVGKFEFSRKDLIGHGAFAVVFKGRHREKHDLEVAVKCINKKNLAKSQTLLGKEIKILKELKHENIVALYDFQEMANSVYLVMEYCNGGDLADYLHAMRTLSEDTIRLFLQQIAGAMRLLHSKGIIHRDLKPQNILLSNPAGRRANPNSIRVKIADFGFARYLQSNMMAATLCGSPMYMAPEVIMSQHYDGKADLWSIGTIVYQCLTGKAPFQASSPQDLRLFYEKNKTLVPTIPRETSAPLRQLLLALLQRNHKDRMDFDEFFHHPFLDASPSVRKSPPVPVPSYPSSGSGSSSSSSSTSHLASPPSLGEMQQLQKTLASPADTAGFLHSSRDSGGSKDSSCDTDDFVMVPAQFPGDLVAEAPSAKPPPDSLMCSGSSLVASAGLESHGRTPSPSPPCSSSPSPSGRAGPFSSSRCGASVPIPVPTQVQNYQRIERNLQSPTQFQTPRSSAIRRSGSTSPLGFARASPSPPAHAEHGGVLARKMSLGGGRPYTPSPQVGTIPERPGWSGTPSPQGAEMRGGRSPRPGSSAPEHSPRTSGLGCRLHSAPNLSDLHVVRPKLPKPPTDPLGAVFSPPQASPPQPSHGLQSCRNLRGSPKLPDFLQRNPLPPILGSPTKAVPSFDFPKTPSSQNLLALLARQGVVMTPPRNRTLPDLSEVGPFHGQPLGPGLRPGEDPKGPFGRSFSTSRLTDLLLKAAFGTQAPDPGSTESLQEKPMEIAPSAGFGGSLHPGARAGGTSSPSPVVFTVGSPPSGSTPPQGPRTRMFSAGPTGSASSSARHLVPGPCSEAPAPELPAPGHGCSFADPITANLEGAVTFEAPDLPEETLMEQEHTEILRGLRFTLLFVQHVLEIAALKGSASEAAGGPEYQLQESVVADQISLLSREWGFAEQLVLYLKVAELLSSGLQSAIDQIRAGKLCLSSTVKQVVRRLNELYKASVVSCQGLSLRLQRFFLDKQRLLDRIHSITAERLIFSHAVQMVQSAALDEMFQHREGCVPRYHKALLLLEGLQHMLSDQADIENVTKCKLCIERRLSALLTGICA
Description: as §1

PCTK2 = biological target: T3, PCTK2 (Homo sapiens, UniProt Q00537)
T3 construct: gene CDK17
Description: as §1

PIK3CA(E542K) = PIK3CA(E542K) (Homo sapiens, UniProt P42336, E542K)
Description: as §1

[1] = biological target: T4, ABL1(T315I)-nonphosphorylated (Homo sapiens, UniProt P00519, T315I)
T4 construct: nonphosphorylated
Description: as §1

FLT3 = FLT3 (Homo sapiens, UniProt P36888)
Description: as §1

BLK = BLK (Homo sapiens, UniProt P51451)
Description: as §1

HPK1 = biological target: T5, HPK1 (Homo sapiens, UniProt Q92918)
T5 construct: gene MAP4K1
Description: as §1

TAOK2 = TAOK2 (Homo sapiens, UniProt Q9UL54)
Description: as §1

CAMK2D = CAMK2D (Homo sapiens, UniProt Q13557)
Description: as §1

NEK3 = NEK3 (Homo sapiens, UniProt P51956)
Chain of NEK3 (P51956 whole entry): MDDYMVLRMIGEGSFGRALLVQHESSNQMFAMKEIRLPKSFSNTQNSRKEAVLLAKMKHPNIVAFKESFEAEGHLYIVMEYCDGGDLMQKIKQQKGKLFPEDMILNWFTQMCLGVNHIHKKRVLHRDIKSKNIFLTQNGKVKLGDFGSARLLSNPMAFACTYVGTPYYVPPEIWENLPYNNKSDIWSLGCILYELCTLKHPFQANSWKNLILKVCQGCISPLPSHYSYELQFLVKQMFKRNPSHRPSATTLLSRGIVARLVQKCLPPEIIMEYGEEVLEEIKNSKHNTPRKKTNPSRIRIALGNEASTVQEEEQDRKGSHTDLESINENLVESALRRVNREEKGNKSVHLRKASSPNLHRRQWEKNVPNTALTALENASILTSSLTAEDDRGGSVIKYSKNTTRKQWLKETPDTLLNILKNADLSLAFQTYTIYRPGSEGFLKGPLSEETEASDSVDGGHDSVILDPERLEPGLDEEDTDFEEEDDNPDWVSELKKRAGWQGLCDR
Description: as §1

With `c1ccc2c(c1)Sc1ccccc1N2CCN1CCOCC1` [J54] the remaining binding (EPHB3) was 100%, the remaining binding (EGFR(G719C)) was 100% and the remaining binding (MET) was 92%. The remaining binding (PRKCH) was 94%, the remaining binding (MEK3) was 100% and the remaining binding (SIK) was 91%. The remaining binding (PIK3CA(Q546K)) was 100%, the remaining binding (MYLK4) was 99% and the remaining binding (ULK1) was 99%. It also gave a remaining binding (PCTK2) of 100%, a remaining binding (PIK3CA(E542K)) of 100% and a remaining binding [1] of 94%. It also gave a remaining binding (FLT3) of 100%, a remaining binding (BLK) of 60% and a remaining binding (HPK1) of 100%. The remaining binding (TAOK2) was 100%, the remaining binding (CAMK2D) was 100% and the remaining binding (NEK3) was 75%.
